Literature values, collected in patent US20250049902A1, “Method of Developing a Peptide-Based Vaccine Conjugated with 1V209” (VERSITECH LIMITED, priority 2021, published 2025).

What was measured:
TLR7 pathway = settings: reported, ref [3]
[1] = tested on: antigen specific immune responses; settings: small molecule simply mixed with antigens, ref [3]

COCCOc1nc(N)c2[nH]c(=O)n(Cc3ccc(C(=O)O)cc3)c2n1 [1V209, 4-[[6-Amino-7,8-dihydro-2-(2-methoxyethoxy)-8-oxo-9H-purin-9-yl]methyl]-benzoic acid]
TLR7 pathway stimulation (TLR7 pathway): can stimulate the TLR7 pathway as an agonist
induction of antigen specific immune responses [1]: can hardly induce antigen specific immune responses
